As usually defined, the IC50 is the midpoint of a concentration-inhibition curve.

The target in assay [1] is Leucine-rich repeat serine/threonine-protein kinase 2 (Homo sapiens, UniProt Q5S007). Description: LRRK2 Wild-Type and G2019S Kinase Activity Assay. The protocol: (§1) The LRRK2 kinase was obtained from Invitrogen (Life Technologies Corporation) and comprises residue 970 to 2527 of the full length human wild-type LRRK2 kinase, or a similar sequence with the G2019S mutation. As discussed above, this mutation increases the kinase activity relative to the wild type. The kinase reactions were performed in a 20 uL volume in 384-well plates. The kinase reaction buffer consisted of 50 mM Tris pH 8.5, 0.01% BRIJ-35, 10 mM MgCl2, 1 mM EGTA, and 2 mM DTT.In the assay, 1 nM LRRK2 WT or 250 pM LRRK2 G2019S kinase in kinase reaction buffer was incubated with the test compound (typically at 0 to 30 uM) for 30 minutes before the kinase reaction was initiated by addition of 1.3 mM ATP and 0.4 uM fluorescein-LRRKtide. The reaction mixture (20 ul total volume) was incubated for 3.5 h (for LRRK2 WT) and 3 h (for LRRK2 G2019S) at 30 C., before the reaction was terminated by addition of 10 mM EDTA and 1 nM terbium-labelled anti-phospho-LRRKtide antibody (final volume […]). The mixture was further incubated for 30 minutes at RT. TR-FRET was measured by excitation of the terbium-donor with 340 nm light and subsequent (delay time 100 us) measurement of terbium and fluorescein emission at 495 nm and 520 nm, respectively, over a time window of 1000 us. The measurement was repeated 30 times for fluorescein and 30 times for terbium emission with a 1000 us time window between repeats. TR-FRET measurements were performed on a Biotek Synergy plate. The TR-FRET signal was calculated as the emission-ratio at 520 nm over 495 nm.
Leucine-rich repeat serine/threonine-protein kinase 2, sequence (Q5S007 whole entry): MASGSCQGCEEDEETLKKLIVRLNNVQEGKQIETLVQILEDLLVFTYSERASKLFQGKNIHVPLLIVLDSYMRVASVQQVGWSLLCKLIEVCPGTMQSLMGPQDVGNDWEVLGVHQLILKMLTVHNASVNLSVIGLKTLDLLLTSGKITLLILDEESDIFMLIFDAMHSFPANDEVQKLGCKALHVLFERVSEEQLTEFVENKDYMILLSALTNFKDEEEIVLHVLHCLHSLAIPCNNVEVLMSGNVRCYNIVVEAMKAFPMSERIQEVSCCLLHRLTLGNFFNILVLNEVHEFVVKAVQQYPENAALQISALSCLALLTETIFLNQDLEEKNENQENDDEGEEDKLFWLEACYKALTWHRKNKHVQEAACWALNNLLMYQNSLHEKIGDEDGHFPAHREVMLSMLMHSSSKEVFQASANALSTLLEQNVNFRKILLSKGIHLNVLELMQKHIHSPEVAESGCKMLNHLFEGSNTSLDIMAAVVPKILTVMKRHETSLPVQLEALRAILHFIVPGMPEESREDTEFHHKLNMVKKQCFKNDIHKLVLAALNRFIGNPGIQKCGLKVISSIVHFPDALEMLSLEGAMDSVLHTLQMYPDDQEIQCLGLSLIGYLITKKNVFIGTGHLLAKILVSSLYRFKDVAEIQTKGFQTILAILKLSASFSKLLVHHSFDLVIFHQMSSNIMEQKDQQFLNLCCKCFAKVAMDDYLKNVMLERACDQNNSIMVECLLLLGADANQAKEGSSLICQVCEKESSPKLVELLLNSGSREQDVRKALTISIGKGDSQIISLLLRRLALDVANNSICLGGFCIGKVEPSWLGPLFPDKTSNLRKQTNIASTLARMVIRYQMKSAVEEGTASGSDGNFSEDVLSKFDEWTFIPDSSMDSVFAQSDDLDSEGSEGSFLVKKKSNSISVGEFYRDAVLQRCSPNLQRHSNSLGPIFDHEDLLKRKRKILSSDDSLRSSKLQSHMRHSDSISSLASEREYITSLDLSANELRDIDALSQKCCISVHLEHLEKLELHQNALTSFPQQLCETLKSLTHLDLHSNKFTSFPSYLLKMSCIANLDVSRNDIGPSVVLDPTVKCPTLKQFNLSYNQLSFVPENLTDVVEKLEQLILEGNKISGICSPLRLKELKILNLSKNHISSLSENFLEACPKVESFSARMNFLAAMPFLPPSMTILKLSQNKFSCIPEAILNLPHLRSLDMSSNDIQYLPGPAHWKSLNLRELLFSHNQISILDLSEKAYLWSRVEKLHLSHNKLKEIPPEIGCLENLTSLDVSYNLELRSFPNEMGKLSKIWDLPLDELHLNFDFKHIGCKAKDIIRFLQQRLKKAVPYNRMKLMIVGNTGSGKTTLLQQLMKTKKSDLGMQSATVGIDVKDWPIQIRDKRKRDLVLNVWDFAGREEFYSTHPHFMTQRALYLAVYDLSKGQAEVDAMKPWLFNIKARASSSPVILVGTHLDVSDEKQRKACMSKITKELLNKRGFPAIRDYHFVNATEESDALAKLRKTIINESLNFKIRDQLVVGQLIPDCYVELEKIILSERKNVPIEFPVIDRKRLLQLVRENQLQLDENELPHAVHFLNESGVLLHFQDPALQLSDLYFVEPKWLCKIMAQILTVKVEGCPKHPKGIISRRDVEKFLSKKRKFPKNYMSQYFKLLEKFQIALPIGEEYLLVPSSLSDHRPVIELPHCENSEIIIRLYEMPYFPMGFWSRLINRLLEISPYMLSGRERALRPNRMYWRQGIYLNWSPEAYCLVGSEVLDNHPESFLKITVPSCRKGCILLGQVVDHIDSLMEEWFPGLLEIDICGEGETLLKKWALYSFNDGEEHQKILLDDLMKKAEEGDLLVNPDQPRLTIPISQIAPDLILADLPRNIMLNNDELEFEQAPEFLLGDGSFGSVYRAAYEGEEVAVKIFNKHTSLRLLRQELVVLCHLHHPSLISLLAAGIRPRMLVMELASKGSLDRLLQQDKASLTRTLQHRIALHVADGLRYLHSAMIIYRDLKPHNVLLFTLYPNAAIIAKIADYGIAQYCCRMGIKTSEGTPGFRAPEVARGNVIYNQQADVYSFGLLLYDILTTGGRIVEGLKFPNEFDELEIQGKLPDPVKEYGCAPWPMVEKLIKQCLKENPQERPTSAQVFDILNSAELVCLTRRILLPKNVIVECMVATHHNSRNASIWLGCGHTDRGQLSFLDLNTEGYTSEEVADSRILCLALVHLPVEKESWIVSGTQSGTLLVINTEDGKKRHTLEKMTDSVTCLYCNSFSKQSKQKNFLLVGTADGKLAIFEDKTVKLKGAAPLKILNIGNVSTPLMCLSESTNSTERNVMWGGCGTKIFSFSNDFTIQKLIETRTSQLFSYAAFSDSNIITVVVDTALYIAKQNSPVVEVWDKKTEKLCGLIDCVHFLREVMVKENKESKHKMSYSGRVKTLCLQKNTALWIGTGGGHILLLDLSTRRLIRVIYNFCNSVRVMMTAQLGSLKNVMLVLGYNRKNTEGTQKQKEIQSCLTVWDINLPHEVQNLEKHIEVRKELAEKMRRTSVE

Assay [2] has as its target Leucine-rich repeat serine/threonine-protein kinase 2 [G2019S] (Homo sapiens, UniProt Q5S007, G2019S). The assay is described as follows: LRRK2 Wild-Type and G2019S Kinase Activity Assay. The protocol: as §1

SMILES strings stand for the structures. Values joined by “and” are separate entries in the source; they are usually repeats but may differ in a detail not shown here. Equal entries are not always repeated.

Leucine-rich repeat serine/threonine-protein kinase 2 [G2019S], sequence (Q5S007 whole entry G2019S): as the sequence (Q5S007 whole entry) above, with G2019S counted along it

`Cc1c2c(nn1[C@H]1CCCOC1)OCCCn1nc(Cl)c3cnc(nc31)N2` (single isomer, unassigned) [US11780851, Example 60]: the IC50 in assay [1] turned out to be 25 nM; in assay [2] it was 9 nM.
On to `Cc1c2c(nn1C1CCOCC1)OCCCn1nc(Br)c3cnc(nc31)N2` [US11780851, Example 6], for which the IC50 in assay [1] amounted to 8 nM; in assay [2], 2.2 nM.
The like results for `Cc1c2c(nn1CC1(C)COC1)OCCCn1nc(Cl)c3cnc(nc31)N2` [US11780851, Example 12] were, in that order, 32 nM and 12 nM.
Turning to `Cc1c([N+](=O)[O-])c(OCCCn2nc(Cl)c3cnc(Cl)nc32)nn1C1CCOCC1` [US11780851, Example 15], in assay [1], the half-inhibitory concentration (IC50) is 9.6 nM and 6.8 nM.
Regarding `Cc1c2c(nn1[C@@H]1CCO[C@@H](C)C1)OCCCn1nc(Cl)c3cnc(nc31)N2` [US11780851, Example 19], the IC50 in assay [1] came out at 13 nM; in assay [2] it was 3.9 nM.
Regarding `Cc1c2c(nn1C1CCOCC1)OCCCn1nc(Cl)c3cnc(nc31)N2` [US11780851, Example 20], the IC50 stood at 9.8 nM in assay [1] and 2.4 nM in assay [2].
For `Cc1c2c(nn1[C@H]1CCOC[C@H]1C)OCCCn1nc(Cl)c3cnc(nc31)N2` [US11780851, Example 21], in that order: 10 nM and 3.7 nM.
The like results for `Cc1c2c(nn1[C@@H]1CCOC[C@H]1C)OCCCn1nc(Cl)c3cnc(nc31)N2` [US11780851, Example 22] were, in that order, 10 nM and 3.5 nM.
The like results for `Cc1c2c(nn1[C@H]1CCOC[C@@H]1C)OCCCn1nc(Cl)c3cnc(nc31)N2` [US11780851, Example 23] were, in that order, 44 nM and 20 nM.
For the compound `Cc1c2c(nn1[C@@H]1CCCCOC1)OCCCn1nc(Cl)c3cnc(nc31)N2` [US11780851, Example 29], the IC50 in assay [1] was 25 nM and 14 nM; in assay [2] it was 7.3 nM and 4.3 nM.
On to `Cc1c2c(nn1C1CCCCOC1)OCCCn1nc(Cl)c3cnc(nc31)N2` (centres undefined) [US11780851, Example 30], for which the half-inhibitory concentration (IC50) stood at 12 nM in assay [1] and 4 nM in assay [2].
On to `Cc1c2c(nn1[C@H]1CCOC[C@@H]1F)OCCCn1nc(Cl)c3cnc(nc31)N2` [US11780851, Example 31], for which the results for the IC50 in assay [1] and in assay [2] were 5.6 nM and 2.4 nM, respectively.
For `Cc1c2c(nn1[C@@H]1CCOC[C@@H]1F)OCCCn1nc(Cl)c3cnc(nc31)N2` [US11780851, Example 32], in that order: 15 nM and 6.1 nM.
For `Cc1c2c(nn1C13CC(C(N)=O)(C1)C3)OCCCn1nc(Cl)c3cnc(nc31)N2` [US11780851, Example 33], in that order: 18 nM and 5.9 nM.
For `Cc1c2c(nn1C1(C(N)=O)CC1)OCCCn1nc(Cl)c3cnc(nc31)N2` [US11780851, Example 36], in that order: 23 nM and 7.2 nM.
For `Cc1c2c(nn1C1C3COCC31)OCCCn1nc(Cl)c3cnc(nc31)N2` (centres undefined) [US11780851, Example 38], the values for the IC50 in assay [1] and in assay [2] were 28 nM and 11 nM, respectively.
Consider `Cc1c2c(nn1C1CC1(F)F)OCCCn1nc(Cl)c3cnc(nc31)N2` (centres undefined) [US11780851, Example 39], for which the results for the IC50 in assay [1] and in assay [2] were 19 nM and 7.8 nM, respectively.
Take `Cc1c2c(nn1[C@H]1CC1(F)F)OCCCn1nc(Cl)c3cnc(nc31)N2` [US11780851, Example 40]: the IC50 was 28 nM in assay [1] and 12 nM in assay [2].
The like results for `Cc1c([N+](=O)[O-])c(OCCCn2nc(Cl)c3cnc(Cl)nc32)nn1[C@H]1C[C@@H](C)O[C@@H](C)C1` [US11780851, Example 41] were, in that order, 17 nM and 6.4 nM.
Take `Cc1c2c(nn1[C@@H]1CCOC(C)(C)C1)OCCCn1nc(Cl)c3cnc(nc31)N2` [US11780851, Example 43]: the figures for the IC50 in assay [1] and in assay [2] were 17 nM and 5.3 nM, respectively.
Take `Cc1c2c(nn1C1CC3CCC(C1)O3)OCCCn1nc(Cl)c3cnc(nc31)N2` (centres undefined) [US11780851, Example 44]: the results for the 50% inhibitory concentration (IC50) in assay [1] and in assay [2] were 13 nM and 4.3 nM, respectively.
The like results for `Cc1c2c(nn1C1CCOC[C@@]1(C)F)OCCCn1nc(Cl)c3cnc(nc31)N2` (some centres undefined) [US11780851, Example 47] were, in that order, 13 nM and 3.1 nM.
The like results for `Cc1c2c(nn1C1CCOC[C@]1(C)F)OCCCn1nc(Cl)c3cnc(nc31)N2` (some centres undefined) [US11780851, Example 48] were, in that order, 90 nM and 18 nM.
In the case of `CO[C@H]1CC[C@H](n2nc3c(c2Br)Nc2ncc4c(Cl)nn(c4n2)CCCO3)CC1` [US11780851, Example 50], the values for the IC50 in assay [1] and in assay [2] were 10 nM and 5.3 nM, respectively.
`Cc1c2c(nn1[C@H]1CCO[C@@H](C)C1)OCCCn1nc(Cl)c3cnc(nc31)N2` [US11780851, Example 51]: the IC50 was found to be 11 nM in assay [1] and 3.6 nM in assay [2].
For `Cc1c2c(nn1[C@@H]1CCO[C@H](C)C1)OCCCn1nc(Cl)c3cnc(nc31)N2` [US11780851, Example 52], in that order: 19 nM and 10 nM.
The like results for `Cc1c2c(nn1[C@H]1CCOC3(CC3)C1)OCCCn1nc(Cl)c3cnc(nc31)N2` [US11780851, Example 54] were, in that order, 2.6 nM and 0.88 nM.
For the compound `CCc1c2c(nn1[C@@H]1CCOCC1F)OCCCn1nc(Cl)c3cnc(nc31)N2` (some centres undefined) [US11780851, Example 55], the IC50 is 5.6 nM in assay [1] and 1.5 nM in assay [2].
For `CCc1c2c(nn1[C@H]1CCOCC1F)OCCCn1nc(Cl)c3cnc(nc31)N2` (some centres undefined) [US11780851, Example 56], in that order: 4.9 nM and 2 nM.
For `Cc1c2c(nn1[C@@H]1CCCOCC1)OCCCn1nc(Cl)c3cnc(nc31)N2` [US11780851, Example 59], the IC50 in assay [1] amounted to 17 nM; in assay [2] it was 6.2 nM.
For `Cc1c2c(nn1[C@@H]1CCCOC1)OCCCn1nc(Cl)c3cnc(nc31)N2` [US11780851, Example 61], in that order: 9.2 nM and 2.2 nM.
In the case of `F[C@@H]1COCC[C@H]1n1nc2c(c1Br)Nc1ncc3c(Cl)nn(c3n1)CCCO2` [US11780851, Example 62], the IC50 in assay [1] came to 17 nM; in assay [2], 5.9 nM.
For `F[C@H]1COCC[C@@H]1n1nc2c(c1Br)Nc1ncc3c(Cl)nn(c3n1)CCCO2` [US11780851, Example 63], in that order: 11 nM and 4 nM.
In the case of `Clc1nn2c3nc(ncc13)Nc1c(nn([C@H]3CCOC4(CC4)C3)c1Br)OCCC2` [US11780851, Example 64], the figures for the IC50 in assay [1] and in assay [2] were 11 nM and 5 nM, respectively.
The like results for `Clc1nn2c3nc(ncc13)Nc1c(nn([C@@H]3CCOC4(CC4)C3)c1Br)OCCC2` [US11780851, Example 65] were, in that order, 4.8 nM and 1.7 nM.
